{"source": "paper PMC6044753", "about": "“Diclofenac Identified as a Kynurenine 3-Monooxygenase Binder and Inhibitor by Molecular Similarity Techniques” (ACS Omega, 2018)", "target": "kynurenine 3-monooxygenase (KMO) (Homo sapiens, UniProt O15229)", "sequence (O15229 whole entry)": "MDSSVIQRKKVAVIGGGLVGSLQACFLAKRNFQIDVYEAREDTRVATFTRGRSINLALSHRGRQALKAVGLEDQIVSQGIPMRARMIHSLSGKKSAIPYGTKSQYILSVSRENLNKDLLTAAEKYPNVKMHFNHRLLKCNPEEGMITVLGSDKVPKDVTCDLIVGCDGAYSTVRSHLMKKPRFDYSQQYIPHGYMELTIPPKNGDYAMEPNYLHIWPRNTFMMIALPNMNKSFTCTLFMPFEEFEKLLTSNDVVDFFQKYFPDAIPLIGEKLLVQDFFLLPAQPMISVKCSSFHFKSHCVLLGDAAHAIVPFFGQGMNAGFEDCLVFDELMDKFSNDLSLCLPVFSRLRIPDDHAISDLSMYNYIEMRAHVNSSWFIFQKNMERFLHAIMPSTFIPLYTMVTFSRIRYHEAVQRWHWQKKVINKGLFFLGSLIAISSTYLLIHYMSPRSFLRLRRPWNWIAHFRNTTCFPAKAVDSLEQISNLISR", "assay": "microdialysis (rapid equilibrium dialysis) with LC-MS on enriched HEK-KMO lysate; supported by cell lysate enzymatic inhibition, IC50 […]", "format": "binding"}
{"smiles": "O=C(O)Cc1ccccc1Nc1c(Cl)cccc1Cl", "note": "[diclofenac]", "values": [{"measurement": "Kd", "result": "64.8 ± 29.5", "unit": "µM"}]}
